The test has as its target T1, PARK7 (Homo sapiens, UniProt Q99497).
T1 sequence (Q99497 1-189): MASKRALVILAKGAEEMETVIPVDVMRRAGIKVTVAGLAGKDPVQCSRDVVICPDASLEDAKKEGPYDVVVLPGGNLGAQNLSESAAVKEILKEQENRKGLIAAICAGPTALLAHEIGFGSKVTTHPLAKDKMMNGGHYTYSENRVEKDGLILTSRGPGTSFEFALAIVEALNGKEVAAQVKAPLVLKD
The test can be described thus: High-throughput screen of the crude compound library, PARK7 fluorescence polarization (FP) assay with FP reagent JYQ-107. The class given is biochemical. Conditions: 1.25 µM, crude compound library; read-out: HTS FP assay %Inhibition (1.25 µM).

As usually defined, the inhibition is the share of the control response that was lost under treatment. In the case of `N#CN1CC[C@@H](C(=O)Nc2nc3c(s2)CN(C(=O)c2cc(-c4cccc(Cl)c4)no2)CC3)C1` [compound 245], the inhibition at 1.25 µM worked out at 10.9%. Consider `CCOc1oc(-c2ccco2)nc1C(=O)N1CCc2nc(NC(=O)[C@@H]3CCN(C#N)C3)sc2C1` [compound 246], for which the inhibition at 1.25 µM turned out to be 82.7%. Next, `Cc1ccc(S(=O)(=O)NCCc2ccc(F)cc2)cc1C(=O)N1CCc2nc(NC(=O)[C@@H]3CCN(C#N)C3)sc2C1` [compound 247]: 86.9%; `Cc1nc(-c2ccco2)ccc1C(=O)N1CCc2nc(NC(=O)[C@@H]3CCN(C#N)C3)sc2C1` [compound 248]: 84.8%. Consider `N#CN1CC[C@@H](C(=O)Nc2nc3c(s2)CN(C(=O)C2(CC(=O)N4CCOCC4)CCCC2)CC3)C1` [compound 249], for which the inhibition at 1.25 µM was 73.8%.

With `CN(Cc1ccccc1)C(=O)N1CCC(C(=O)N2CCc3nc(NC(=O)[C@@H]4CCN(C#N)C4)sc3C2)CC1` [compound 250], the inhibition at 1.25 µM turned out to be 67.7%. Under `N#CN1CC[C@@H](C(=O)Nc2nc3c(s2)CN(C(=O)C2(NS(=O)(=O)C=Cc4ccccc4)CCCC2)CC3)C1` [compound 251] stands 66.6%.

As for `N#CN1CC[C@@H](C(=O)Nc2nc3c(s2)CN(C(=O)C(Cc2ccccc2)N2CCCOC2=O)CC3)C1` (some centres unmarked) [compound 252], the inhibition at 1.25 µM is 74.6%. Under `N#CN1CC[C@@H](C(=O)Nc2nc3c(s2)CN(C(=O)c2ccc(N4CCCS4(=O)=O)cc2)CC3)C1` [compound 253] stands 85.9%. Turning to `Cc1ccc(CN2C(=O)CCC2C(=O)N2CCc3nc(NC(=O)[C@@H]4CCN(C#N)C4)sc3C2)cc1` (some centres unmarked) [compound 254], the inhibition at 1.25 µM stood at 53.9%. Under `N#CN1CC[C@@H](C(=O)Nc2nc3c(s2)CN(C(=O)c2nc(C4CC4)ncc2Br)CC3)C1` [compound 255] stands 74%. Under `CN1C(=O)CCC(C(=O)N2CCc3nc(NC(=O)[C@@H]4CCN(C#N)C4)sc3C2)C1c1cccs1` (some centres unmarked) [compound 256] stands 61.4%; under `COc1ccc(CC(=O)N2CCc3nc(NC(=O)[C@@H]4CCN(C#N)C4)sc3C2)cc1S(=O)(=O)N1CCOCC1` [compound 257], 75.5%. Regarding `Cc1noc(C)c1S(=O)(=O)N1CCCC1C(=O)N1CCc2nc(NC(=O)[C@@H]3CCN(C#N)C3)sc2C1` (some centres unmarked) [compound 259], the inhibition at 1.25 µM is 69.8%.

With `Cc1cc(C(=O)N(C)c2ccccc2C(=O)N2CCc3nc(NC(=O)[C@@H]4CCN(C#N)C4)sc3C2)sc1C` [compound 260], the inhibition at 1.25 µM worked out at 61.7%. Regarding `N#CN1CC[C@@H](C(=O)Nc2nc3c(s2)CN(C(=O)c2ccc(N4CCCCCC4)nc2)CC3)C1` [compound 261], the inhibition at 1.25 µM was 84.5%. With `N#CN1CC[C@@H](C(=O)Nc2nc3c(s2)CN(C(=O)CC2=NN(c4cccc(Cl)c4)C(=O)C2)CC3)C1` [compound 262], the inhibition at 1.25 µM came out at 71.9%.

With `Cc1oc(-c2cccs2)nc1C(=O)N1CCc2nc(NC(=O)[C@@H]3CCN(C#N)C3)sc2C1` [compound 263], the inhibition at 1.25 µM was found to be 78.3%. Next, `N#CN1CC[C@@H](C(=O)Nc2nc3c(s2)CN(C(=O)c2ccnc(C4CC4)n2)CC3)C1` [compound 264]: 67.7%. Under `Cn1ccnc1CN1CCC(C(=O)N2CCc3nc(NC(=O)[C@@H]4CCN(C#N)C4)sc3C2)CC1` [compound 265] stands 70.6%; under `N#CN1CC[C@@H](C(=O)Nc2nc3c(s2)CN(C(=O)c2cc(C4CC4)no2)CC3)C1` [compound 266], 73.2%; under `N#CN1CC[C@@H](C(=O)Nc2nc3c(s2)CN(C(=O)C2CCN(C(=O)c4ccc(Cl)s4)CC2)CC3)C1` [compound 267], 75.5%.

As to `CC1CN(c2ccc(C(=O)N3CCc4nc(NC(=O)[C@@H]5CCN(C#N)C5)sc4C3)cn2)CC(C)O1` (some centres unmarked) [compound 269], the inhibition at 1.25 µM is 85.9%. For `N#CN1CC[C@@H](C(=O)Nc2nc3c(s2)CN(C(=O)c2csc(C4CCCCC4)n2)CC3)C1` [compound 270], the inhibition at 1.25 µM worked out at 87.2%. As to `N#CN1CC[C@@H](C(=O)Nc2nc3c(s2)CN(C(=O)c2occc2-c2ccccc2)CC3)C1` [compound 271], the inhibition at 1.25 µM was 81.3%.

In the case of `N#CN1CC[C@@H](C(=O)Nc2nc3c(s2)CN(C(=O)c2ccc(Cn4cccn4)s2)CC3)C1` [compound 272], the inhibition at 1.25 µM is 83.3%.

As for `N#CN1CC[C@@H](C(=O)Nc2nc3c(s2)CN(C(=O)C2CC4CCC2O4)CC3)C1` (some centres unmarked) [compound 273], the inhibition at 1.25 µM came to 67.4%. Under `N#CN1CC[C@@H](C(=O)Nc2nc3c(s2)CN(C(=O)C2CC4C=CC2O4)CC3)C1` (some centres unmarked) [compound 275] stands 72%. Under `N#CN1CC[C@@H](C(=O)Nc2nc3c(s2)CN(C(=O)C2CC=CCC2C(=O)N2CCOCC2)CC3)C1` (some centres unmarked) [compound 276] stands 74.3%. Take `N#CN1CC[C@@H](C(=O)Nc2nc3c(s2)CN(C(=O)c2cccc(N4CCOCC4)n2)CC3)C1` [compound 277]: the inhibition at 1.25 µM is 64.6%. For the compound `N#CN1CC[C@@H](C(=O)Nc2nc3c(s2)CN(C(=O)c2cccc(Cn4cncn4)c2)CC3)C1` [compound 278], the inhibition at 1.25 µM worked out at 80.6%. With `N#CN1CC[C@@H](C(=O)Nc2nc3c(s2)CN(C(=O)c2ccc(Cn4ccnn4)o2)CC3)C1` [compound 280], the inhibition at 1.25 µM amounted to 81.9%. As to `Cc1onc(C(=O)N2CCc3nc(NC(=O)[C@@H]4CCN(C#N)C4)sc3C2)c1CN1CCOCC1` [compound 281], the inhibition at 1.25 µM was determined as 62.3%.

For `N#CN1CC[C@@H](C(=O)Nc2nc3c(s2)CN(C(=O)C2CCN(S(=O)(=O)N4CCCCC4)CC2)CC3)C1` [compound 282], the inhibition at 1.25 µM was determined as 72.8%. Next, `CC1(C(=O)N2CCc3nc(NC(=O)[C@@H]4CCN(C#N)C4)sc3C2)CCCCN1C(=O)OCc1ccccc1` (some centres unmarked) [compound 283]: 65.2%. `N#CN1CC[C@@H](C(=O)Nc2nc3c(s2)CN(C(=O)c2sccc2S(=O)(=O)NC2CCCCCC2)CC3)C1` [compound 284]: the inhibition at 1.25 µM is 75.9%. With `CCn1nccc1-c1cc(C(=O)N2CCc3nc(NC(=O)[C@@H]4CCN(C#N)C4)sc3C2)no1` [compound 285], the inhibition at 1.25 µM came to 81.3%. Consider `N#CN1CC[C@@H](C(=O)Nc2nc3c(s2)CN(C(=O)c2cccc(C(=O)N4CCCC4)n2)CC3)C1` [compound 286], for which the inhibition at 1.25 µM was found to be 81.9%.

As to `N#CN1CC[C@@H](C(=O)Nc2nc3c(s2)CN(C(=O)[C@@H]2CCCO[C@H]2c2ccccc2)CC3)C1` [compound 287], the inhibition at 1.25 µM was 64.1%. As for `N#CN1CC[C@@H](C(=O)Nc2nc3c(s2)CN(C(=O)C2CCCN(S(=O)(=O)c4cccs4)C2)CC3)C1` (some centres unmarked) [compound 288], the inhibition at 1.25 µM is 78.6%. As for `N#CN1CC[C@@H](C(=O)Nc2nc3c(s2)CN(C(=O)c2ccc(Cn4cc(Cl)c(C(F)(F)F)n4)o2)CC3)C1` [compound 289], the inhibition at 1.25 µM came to 81.4%. Next, `COc1ccc(C(=O)N2CCc3nc(NC(=O)[C@@H]4CCN(C#N)C4)sc3C2)cc1S(=O)(=O)N(C)CCc1cccnc1` [compound 290]: 67.7%; `N#CN1CC[C@@H](C(=O)Nc2nc3c(s2)CN(C(=O)CC2CCN(c4ccc(C(F)(F)F)cn4)CC2)CC3)C1` [compound 291]: 79.8%; `N#CN1CC[C@@H](C(=O)Nc2nc3c(s2)CN(C(=O)c2cccnc2-n2cncn2)CC3)C1` [compound 292]: 73.8%.
